This passage reports IC50 and FR-α relative affinity results from paper PMC7581941, “Schedule-Dependent Synergy Between the Histone Deacetylase Inhibitor Belinostat and the Dihydrofolate Reductase Inhibitor Pralatrexate in T-and B-cell Lymphoma Cells in vitro” (Frontiers in Cell and Developmental Biology, 2020).

For one test, the target named is T1, PCFT (Homo sapiens, UniProt Q96NT5).
T1 construct: expressed in transfected cells; host or cells: CHO cells lacking RFC
T1 sequence (Q96NT5 1-459): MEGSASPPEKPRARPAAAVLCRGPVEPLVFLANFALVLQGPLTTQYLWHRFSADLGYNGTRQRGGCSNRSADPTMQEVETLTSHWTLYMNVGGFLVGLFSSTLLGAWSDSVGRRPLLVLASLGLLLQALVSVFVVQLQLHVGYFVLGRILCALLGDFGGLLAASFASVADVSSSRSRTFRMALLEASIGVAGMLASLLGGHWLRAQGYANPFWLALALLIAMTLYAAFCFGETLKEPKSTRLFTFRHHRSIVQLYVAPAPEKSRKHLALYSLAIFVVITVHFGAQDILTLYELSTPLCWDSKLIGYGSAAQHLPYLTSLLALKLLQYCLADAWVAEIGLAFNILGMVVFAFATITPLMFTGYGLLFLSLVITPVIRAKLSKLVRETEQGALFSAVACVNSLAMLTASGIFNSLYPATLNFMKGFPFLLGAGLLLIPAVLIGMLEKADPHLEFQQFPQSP
Put plainly: PCFT competition assay: inhibition of [3H]-l-LV influx in CHO-cells lacking RFC and transfected with PCFT. The settings on record: 2.5 μM [3H]-l-LV, pH 5.5, 3 min, 37°C; read-out: PCFT: concentration of unlabeled drug necessary to inhibit [3H]-LV influx. Type of test: cell-based. The protocol: The affinity for PCFT of PLX was assessed in competition with 2.5 μM ^3H-l-LV at pH 5.5 in CHO-cells lacking RFC and transfected with PCFT. […] […] Also for PCFT relative affinities were expressed as the concentration of unlabeled drug necessary to inhibit [^3H]-LV influx.

In a further test the target is T2, RFC (Homo sapiens, UniProt P41440).
T2 construct: CEM-7A cells overexpress the RFC 30-fold over wild-type CCRF-CEM cells; endogenous in cells; host or cells: CCRF-CEM/7A (CEM-7A) cells
T2 sequence (P41440 1-591): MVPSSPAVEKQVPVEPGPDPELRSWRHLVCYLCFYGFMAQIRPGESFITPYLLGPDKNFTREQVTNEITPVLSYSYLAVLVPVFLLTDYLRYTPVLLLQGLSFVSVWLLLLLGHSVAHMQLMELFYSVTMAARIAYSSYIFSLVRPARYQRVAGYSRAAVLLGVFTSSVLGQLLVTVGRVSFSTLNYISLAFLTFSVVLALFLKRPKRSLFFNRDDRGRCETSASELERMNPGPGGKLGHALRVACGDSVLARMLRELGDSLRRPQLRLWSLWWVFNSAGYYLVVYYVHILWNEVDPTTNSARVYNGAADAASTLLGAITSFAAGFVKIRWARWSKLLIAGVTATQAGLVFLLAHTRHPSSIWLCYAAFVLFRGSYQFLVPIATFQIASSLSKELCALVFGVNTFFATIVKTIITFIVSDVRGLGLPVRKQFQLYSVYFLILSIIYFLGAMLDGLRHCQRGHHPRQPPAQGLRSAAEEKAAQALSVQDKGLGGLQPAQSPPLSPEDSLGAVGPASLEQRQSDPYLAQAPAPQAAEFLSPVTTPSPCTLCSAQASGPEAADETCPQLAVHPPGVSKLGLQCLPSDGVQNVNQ
Put plainly: RFC competition assay: inhibition of [3H]-l-LV uptake in CCRF-CEM/7A cells (RFC+++). Type of test: cell-based. The settings on record: 5 μM [3H]-l-LV, 2 min, 37°C, CCRF-CEM/7A cells; read-out: RFC: concentration of unlabeled drug necessary to inhibit [3H]-l-LV uptake by 50%. The protocol: For FRα and FRβ, we used an intact cell binding assay for competitive binding with KB cells and CHO-FRβ cells, respectively. […] For RFC we used a competition assay with 5 μM [^3H]-l-LV in CCRF-CEM/7A cells (RFC+++) for 2 min at 37°C.
Transport was determined by evaluation of the uptake of 5 μM [^3H]-l-LV for 2 min in CCRF-CEM-7A cells, which overexpress RFC. […] Values are from one representative experiment in triplicate; performed three times. Error bars represent SEM, when not visible, they are within the size of the marker.

Another test addresses T3, FRα (Homo sapiens, UniProt P15328).
T3 construct: endogenous in cells; host or cells: KB cells
The test can be described thus: Intact cell binding assay, displacement of radio-active folic acid from KB cells. The settings on record: inverse ratio of compound to displace 50% of radio-active folic acid, folic acid set at 1. The protocol:
In order to determine to which extent PLX was a substrate for either the folate receptors, RFC or PCFT we used competition experiments in cell lines overexpressing either transporter ([Westerhof et al., 1995a], [b]; [Jansen et al., 1997]; [Ifergan et al., 2008]; [Lasry et al., 2008]; [van der Heijden et al., 2009]). For FRα and FRβ, we used an intact cell binding assay for competitive binding with KB cells and CHO-FRβ cells, respectively. […] For RFC we used a competition assay with 5 μM [^3H]-l-LV in CCRF-CEM/7A cells (RFC+++) for 2 min at 37°C. CEM-7A cells overexpress the RFC 30-fold over wild-type CCRF-CEM cells ([Jansen et al., 1990], [1997]).

T3 sequence (P15328 25-257): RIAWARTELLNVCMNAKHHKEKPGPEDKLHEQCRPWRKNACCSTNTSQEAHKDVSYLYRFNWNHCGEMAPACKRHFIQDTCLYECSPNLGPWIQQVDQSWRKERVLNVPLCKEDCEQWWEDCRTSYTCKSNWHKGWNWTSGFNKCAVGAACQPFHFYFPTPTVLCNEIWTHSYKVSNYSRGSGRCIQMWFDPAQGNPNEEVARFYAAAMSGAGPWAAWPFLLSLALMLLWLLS

Regarding `Nc1nc(=O)c2c([nH]1)NC[C@H](CNc1ccc(C(=O)N[C@@H](CCC(=O)O)C(=O)O)cc1)N2C=O` [l-LV, l-Leucovorin], the IC50 at PCFT is 4 ± 0.1 µM; at RFC it was 5.5 ± 0.7 µM. Further, the FR-α relative affinity at FRα is recorded as 0.073 ± 0.0010.
